In publication PMC7236083 (Hormones & cancer, 2020):
pIC50: −log10 of the molar value.

Columns and labels:
[1] = biological target: T1, glucocorticoid receptor (GR) (Homo sapiens, UniProt P04150); assay: fluorescence polarization competitive binding assay
T1 sequence (P04150 1-777): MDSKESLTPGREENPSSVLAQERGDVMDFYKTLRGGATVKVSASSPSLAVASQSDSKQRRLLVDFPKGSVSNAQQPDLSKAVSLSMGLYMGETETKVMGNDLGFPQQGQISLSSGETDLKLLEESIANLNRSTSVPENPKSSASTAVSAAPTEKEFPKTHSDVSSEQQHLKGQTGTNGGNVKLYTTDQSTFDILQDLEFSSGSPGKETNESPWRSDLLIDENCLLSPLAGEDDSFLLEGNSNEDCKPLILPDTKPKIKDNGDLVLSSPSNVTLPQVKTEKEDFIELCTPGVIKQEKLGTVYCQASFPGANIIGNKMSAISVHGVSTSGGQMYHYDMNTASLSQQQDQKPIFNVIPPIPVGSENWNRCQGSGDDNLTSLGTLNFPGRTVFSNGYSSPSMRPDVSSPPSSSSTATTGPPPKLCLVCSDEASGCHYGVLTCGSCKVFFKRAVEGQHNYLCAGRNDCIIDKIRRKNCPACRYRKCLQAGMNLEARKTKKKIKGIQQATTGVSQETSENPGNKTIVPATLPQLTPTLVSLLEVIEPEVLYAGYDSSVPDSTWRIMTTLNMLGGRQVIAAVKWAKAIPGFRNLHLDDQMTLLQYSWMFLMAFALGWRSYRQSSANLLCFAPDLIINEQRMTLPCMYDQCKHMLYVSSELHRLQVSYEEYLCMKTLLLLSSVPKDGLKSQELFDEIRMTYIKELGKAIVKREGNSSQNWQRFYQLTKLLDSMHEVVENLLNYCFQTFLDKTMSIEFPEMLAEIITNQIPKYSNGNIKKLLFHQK

[2] = biological target: T2, progesterone receptor (PR) (Homo sapiens, UniProt P06401); assay: as above
T2 sequence (P06401 675-933): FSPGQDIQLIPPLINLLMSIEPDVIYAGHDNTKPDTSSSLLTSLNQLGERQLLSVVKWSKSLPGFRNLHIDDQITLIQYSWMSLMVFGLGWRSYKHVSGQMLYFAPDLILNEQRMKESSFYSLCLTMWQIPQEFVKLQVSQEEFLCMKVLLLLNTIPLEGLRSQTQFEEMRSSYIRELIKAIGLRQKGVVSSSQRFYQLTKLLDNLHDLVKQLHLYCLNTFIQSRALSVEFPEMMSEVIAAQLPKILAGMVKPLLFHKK

O=c1cc(-c2ccccc2)oc2cc(O)c(O)c(O)c12 [baicalein]
pIC50 [1]: 4.72 | pIC50 [2]: 4.82
